Experimental data from article PMC9960307, “Design, Synthesis, Biological Evaluation, and Molecular Dynamics Simulation of Influenza Polymerase PB2 Inhibitors” (Molecules, 2023).
Several values for one entry are separate records, joined by “and”; a condition that tells them apart may be missing. Identical values can stand only once. Like-named read-outs stand apart in the source and are kept apart here.

Assays:
[1] = molecular target: T1, influenza A/WSN/1933 (H1N1) PB2 CBD (aa.318-486) (Influenza A virus, UniProt P03427); test: SPR competitive binding assay (Biacore T200)
T1 construct: influenza A/WSN/1933 (H1N1) PB2 CBD (aa.318-486); purchased
Experimental: Biomolecular interaction analysis based on surface plasmon resonance (SPR) assays was performed using VX-787 and comp. I and II at concentrations ranging from 20 to 0.156 µM to investigate their competitive binding affinities with PB2 (Table 1).
Commercial companies express and purify HIN1 PB2 CBD protein, which provides influenza A/WSN/1933 (H1N1) PB2 CBD (aa.318-486). Using a Biacore T200 (GE Healthcare) and a running buffer of which contains a solution of 1 × PBS-P + 0.02 M phosphate buffer, 2.7 mM KCl, 0.137 M NaCl, and 0.05% Tween 20, H1N1 PB2 was immobilized to a level of 4900 response units (RUs). Serial dilutions of small molecules were injected, ranging in concentration from 20 µM to 0.156 µM. GE Healthcare’s Biacore Evaluation Software was used to fit the resulting data to the affinity binding model.

[2] = system: influenza virus A/Puerto Rico/8/1934 (H1N1); test: Cytopathic effect (CPE) inhibition assay, H1N1; assay type: cell-based, influenza A/Puerto Rico/8/1934 (H1N1); conditions: MDCK, 72 h, read-out: H1N1 IC50
[3] = system: influenza virus A/Hong Kong/8/68 (H3N2); test: Cytopathic effect (CPE) inhibition assay, H3N2; assay type: cell-based, influenza A/Hong Kong/8/68 (H3N2); conditions: MDCK cells, MOI 0.005, 72 h, CellTiter-Glo
[4] = molecular target: T2, aldehyde oxidase (AO) (Homo sapiens, UniProt Q06278); test: AO-mediated metabolic stability in human liver cytosol with/without raloxifene; assay type: in vitro ADME; conditions: for sensitivity to aldehyde oxidase (AO substrate or not): human liver cytosol, in words; for half-life at 1 μM: pooled liver (hepatocyte) cytosol, pH 7.4, human liver cytoplasm, read-out: Cytoplasm T1/2, Human
T2 construct: Human liver cytosolic protein was incubated with VX-787, comp; I, and comp; II; from tissue; host or cells: pooled human liver (hepatocyte) cytosol
T2 sequence (Q06278 1-1338): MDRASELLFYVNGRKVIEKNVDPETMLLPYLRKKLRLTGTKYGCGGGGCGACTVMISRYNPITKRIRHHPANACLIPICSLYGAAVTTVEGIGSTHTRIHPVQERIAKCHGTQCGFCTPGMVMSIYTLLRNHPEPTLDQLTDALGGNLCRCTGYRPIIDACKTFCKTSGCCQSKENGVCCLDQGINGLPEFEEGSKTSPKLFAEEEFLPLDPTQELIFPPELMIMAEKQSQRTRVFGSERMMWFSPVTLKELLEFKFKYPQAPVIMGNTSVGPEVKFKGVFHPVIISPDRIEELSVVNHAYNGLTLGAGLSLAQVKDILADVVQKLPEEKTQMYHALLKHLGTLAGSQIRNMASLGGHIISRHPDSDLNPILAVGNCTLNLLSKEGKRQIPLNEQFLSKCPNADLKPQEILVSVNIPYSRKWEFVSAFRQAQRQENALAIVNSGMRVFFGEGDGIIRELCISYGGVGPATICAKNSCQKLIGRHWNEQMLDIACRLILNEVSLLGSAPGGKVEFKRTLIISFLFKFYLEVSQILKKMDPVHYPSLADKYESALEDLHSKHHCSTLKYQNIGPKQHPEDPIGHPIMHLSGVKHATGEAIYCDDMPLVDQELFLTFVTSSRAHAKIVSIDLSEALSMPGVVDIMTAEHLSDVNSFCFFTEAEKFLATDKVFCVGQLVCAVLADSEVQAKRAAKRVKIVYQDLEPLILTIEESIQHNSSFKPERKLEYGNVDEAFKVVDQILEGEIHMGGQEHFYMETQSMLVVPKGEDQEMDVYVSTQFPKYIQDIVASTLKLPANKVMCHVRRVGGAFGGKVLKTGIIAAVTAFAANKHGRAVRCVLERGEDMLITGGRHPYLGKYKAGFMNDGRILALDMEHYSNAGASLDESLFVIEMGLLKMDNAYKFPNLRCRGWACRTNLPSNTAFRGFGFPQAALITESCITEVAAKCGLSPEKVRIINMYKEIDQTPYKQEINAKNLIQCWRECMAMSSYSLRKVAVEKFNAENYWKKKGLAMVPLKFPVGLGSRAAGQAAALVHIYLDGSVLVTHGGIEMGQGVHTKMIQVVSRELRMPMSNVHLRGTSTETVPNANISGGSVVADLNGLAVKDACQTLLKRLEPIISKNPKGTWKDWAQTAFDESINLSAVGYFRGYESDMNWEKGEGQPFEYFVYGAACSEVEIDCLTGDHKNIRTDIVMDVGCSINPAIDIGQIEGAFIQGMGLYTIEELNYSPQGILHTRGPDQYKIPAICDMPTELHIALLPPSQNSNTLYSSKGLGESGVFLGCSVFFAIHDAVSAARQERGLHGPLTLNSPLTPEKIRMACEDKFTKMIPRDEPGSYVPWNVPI

[5] = not given; remark: listed apart in the source
[6] = system: virus-free cells; parameters: method as in PMID 25547360; conditions: incubated in virus-free cells; cited from earlier work
[7] = parameters: method as in PMID 32604406; conditions: phase II clinical trial; cited from earlier work
[8] = in vitro; conditions: dog
[9] = in vitro; conditions: rat, microsomes, pH 7.4, Microsome T1/2, Rat, rat liver microsomes, 1 μM
[10] = in vitro; conditions: human, microsomes, pH 7.4, Microsome T1/2, Human, human liver microsomes, 1 μM
[11] = oral dose 600 mg, bid, healthy volunteers; cited from earlier work
[12] = system: influenza virus; test: CPE inhibition assay as summarised in the conclusions (strain not stated); assay type: cell-based; conditions: unidentified influenza virus
[13] = not given; remark: listed apart in the source
[14] = with AO inhibitor raloxifene, 0 min
[15] = with AO inhibitor raloxifene, 15 min
[16] = with AO inhibitor raloxifene, 30 min
[17] = with AO inhibitor raloxifene, 60 min

T1 sequence (P03427 318-486): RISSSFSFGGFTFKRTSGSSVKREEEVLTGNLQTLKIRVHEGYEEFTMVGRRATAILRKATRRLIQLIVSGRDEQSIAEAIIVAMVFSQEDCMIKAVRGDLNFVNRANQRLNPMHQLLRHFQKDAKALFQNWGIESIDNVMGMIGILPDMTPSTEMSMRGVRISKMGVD

O=C(O)[C@H]1C2CCC(CC2)[C@@H]1Nc1nc(-c2c[nH]c3ncc(F)cc23)ncc1F [VX-787, pimodivir, reference compound]
Kd ([1]; 20 to 0.156 µM, affinity binding model, read-out: SPR KD): 152 nM | IC50 [2]: < 3 nM | IC50 [3]: < 3 nM | sensitivity to aldehyde oxidase (AO substrate or not) [4]: indeed an AO substrate | half-life at 1 μM [4]: 2.5 h | Residual percentage in 0.5mg/ml human liver cytoplasm [4, 14]: 100.00±3.54% | Residual percentage in 0.5mg/ml human liver cytoplasm [4, 15]: 100.65±7.76% | Residual percentage in 0.5mg/ml human liver cytoplasm [4, 16]: 97.25±1.77% | Residual percentage in 0.5mg/ml human liver cytoplasm ([4]; without raloxifene, 0 min): 100.00±7.65% | Residual percentage in 0.5mg/ml human liver cytoplasm ([4]; without raloxifene, 15 min): 87.02±9.00% | Residual percentage in 0.5mg/ml human liver cytoplasm ([4]; without raloxifene, 30 min): 90.17±9.31% | Residual percentage in 0.5mg/ml human liver cytoplasm ([4]; without raloxifene, 60 min): 71.87±6.78% and 72% | Microsome Clh, Rat (rat liver microsomes): 1.72 mL/min/kg | Residual percentage in rat liver microsome (with NADPH, 0 min): 99.99±0.99% | Residual percentage in rat liver microsome (with NADPH, 5 min): 98.25±4.53% | Residual percentage in rat liver microsome (with NADPH, 15 min): 95.80±0.68% | Residual percentage in rat liver microsome (with NADPH, 30 min): 91.51±3.09% | Residual percentage in rat liver microsome (with NADPH, 60 min): 88.79±2.11% and 88% | Residual percentage in rat liver microsome (without NADPH, 0 min): 99.99±2.01% | Residual percentage in rat liver microsome (without NADPH, 5 min): 109.05% | Residual percentage in rat liver microsome (without NADPH, 15 min): 103.93% | Residual percentage in rat liver microsome (without NADPH, 30 min): 100.41% | Residual percentage in rat liver microsome (without NADPH, 60 min): 92.13±5.76% | Microsome Clh, Human ([5]; human liver microsomes): 1.49 mL/min/kg | Residual percentage in human liver microsome ([5]; with NADPH, 0 min): 99.99±4.23% | Residual percentage in human liver microsome ([5]; with NADPH, 5 min): 103.84±1.21% | Residual percentage in human liver microsome ([5]; with NADPH, 15 min): 91.56±7.20% | Residual percentage in human liver microsome ([5]; with NADPH, 30 min): 101.85±8.49% | Residual percentage in human liver microsome ([5]; with NADPH, 60 min): 89.33±8.96% and 89.33% | Residual percentage in human liver microsome ([5]; without NADPH, 0 min): 100.00% | Residual percentage in human liver microsome ([5]; without NADPH, 5 min): 110.26% | Residual percentage in human liver microsome ([5]; without NADPH, 15 min): 100.78% | Residual percentage in human liver microsome ([5]; without NADPH, 30 min): 113.32% | Residual percentage in human liver microsome ([5]; without NADPH, 60 min): 107.81% | cytotoxicity [6]: no cytotoxicity | adverse effects [7]: no serious adverse effects | viral load in patients [7]: reduce the viral load | CC50 [8]: > 200000 nM | half-life [9]: 4.16 h | half-life [10]: 5.82 h | safety in phase I clinical trial [11]: no safety issues

O=C(O)C1C2CCC(CC2)C1Nc1nc(-n2c(=O)[nH]c3ncc(F)cc32)ncc1F [comp. I, (1R,2S,3S,4R)-3-((5-fluoro-2-(6-fluoro-2-oxo-2,3-dihydro-1H-imidazo[4,5-b]pyridin-1-yl)pyrimidin-4-yl)amino)bicyclo[2.2.2]octane-2-carboxylic acid]
Kd [1]: 1400 nM | IC50 [2]: 70 ± 20 nM | IC50 [3]: 40 ± 10 nM | sensitivity to aldehyde oxidase (AO substrate or not) [4]: remains as a substrate | half-life at 1 μM [4]: > 13.3 h | Residual percentage in 0.5mg/ml human liver cytoplasm [4, 14]: 100.00±3.87% | Residual percentage in 0.5mg/ml human liver cytoplasm [4, 15]: 108.27±5.07% | Residual percentage in 0.5mg/ml human liver cytoplasm [4, 16]: 102.66±4.43% | Residual percentage in 0.5mg/ml human liver cytoplasm [4, 17]: 112.89±1.99% | Residual percentage in 0.5mg/ml human liver cytoplasm ([4]; without raloxifene, 0 min): 100.00±6.12% | Residual percentage in 0.5mg/ml human liver cytoplasm ([4]; without raloxifene, 15 min): 95.20±3.72% | Residual percentage in 0.5mg/ml human liver cytoplasm ([4]; without raloxifene, 30 min): 99.98±8.74% | Residual percentage in 0.5mg/ml human liver cytoplasm ([4]; without raloxifene, 60 min): 93% | Residual percentage in 0.5mg/ml human liver cytoplasm ([4]; without raloxifene, 60 min, listed as Comp I): 93.52±8.82% | EC50 [12]: 40 nM | Residual percentage in rat liver microsome (rat, 0 min, 1 μM, pH 7.4): 100.00% | Microsome Clh, Rat (rat, 1 μM, pH 7.4): 0.53 mL/min/kg | CC50 at 72 h [8]: > 200000 nM | half-life [9]: > 13.3 h | half-life [10]: > 13.3 h

N=c1[nH]c2ncc(F)cc2n1-c1ncc(F)c(NC2C3CCC(CC3)C2C(=O)O)n1 [comp. II, (1R,2S,3S,4R)-3-((2-(2-amino-6-fluoro-1H-imidazo[4,5-b]20yridine-1-yl)-5-fluoropyrimidin-4-yl)amino)bicyclo[2.2.2]octane-2-carboxylic acid]
Kd [1]: 1670 nM | IC50 [2]: 90 ± 50 nM | IC50 [3]: 70 ± 30 nM | sensitivity to aldehyde oxidase (AO substrate or not) [4]: nearly unaffected | half-life at 1 μM [4]: > 13.3 h | Residual percentage in 0.5mg/ml human liver cytoplasm [4, 14]: 100.00±8.74% | Residual percentage in 0.5mg/ml human liver cytoplasm [4, 15]: 110.60±4.82% | Residual percentage in 0.5mg/ml human liver cytoplasm [4, 16]: 107.60±7.80% | Residual percentage in 0.5mg/ml human liver cytoplasm [4, 17]: 109.12±6.67% | Residual percentage in 0.5mg/ml human liver cytoplasm ([4]; without raloxifene, 0 min): 100.00±0.44% | Residual percentage in 0.5mg/ml human liver cytoplasm ([4]; without raloxifene, 15 min): 107.07±16.04% | Residual percentage in 0.5mg/ml human liver cytoplasm ([4]; without raloxifene, 30 min): 108.17±9.51% | Residual percentage in 0.5mg/ml human liver cytoplasm ([4]; without raloxifene, 60 min): barely changed | Residual percentage in 0.5mg/ml human liver cytoplasm ([4]; without raloxifene, 60 min, listed as Comp II): 103.11±2.84% | EC50 [12]: 90 nM | melting point [13]: 315 to 317 °C | Microsome Clh, Human ([5]; human, 1 μM, pH 7.4): 0.46 mL/min/kg | CC50 at 72 h [8]: > 200000 nM | half-life [9]: > 13.3 h | half-life [10]: > 13.3 h
